Activity calls are given as the source filed them. The calls are words filed in the database; no cut-off is given here.
Legend:
[1] = Partition coefficient (logD7.4); type: physicochemical; conditions: octanol/water, pH 7.4
[2] = Dissociation constant (pKa); type: physicochemical
Rattus norvegicus [3] = assay: Intrinsic sympathomimetic activity (ISA) measured as max. increase in heart rate over 60 min in reserpinized normotensive anesthetized rats at 1000 ug/kg iv; type: functional; set-up: unit not given here
Rattus norvegicus [4] = assay: Intrinsic sympathomimetic activity (ISA) measured as max increase in heart rate over 60 min in the reserpinized normotensive anesthetized rats at 1000 ug/kg iv; type: functional
[5] = target: Beta-2 adrenergic receptor (Cavia porcellus) (UniProt Q8K4Z4)
Sequence of Beta-2 adrenergic receptor (Cavia porcellus) (Q8K4Z4 whole entry, looked up): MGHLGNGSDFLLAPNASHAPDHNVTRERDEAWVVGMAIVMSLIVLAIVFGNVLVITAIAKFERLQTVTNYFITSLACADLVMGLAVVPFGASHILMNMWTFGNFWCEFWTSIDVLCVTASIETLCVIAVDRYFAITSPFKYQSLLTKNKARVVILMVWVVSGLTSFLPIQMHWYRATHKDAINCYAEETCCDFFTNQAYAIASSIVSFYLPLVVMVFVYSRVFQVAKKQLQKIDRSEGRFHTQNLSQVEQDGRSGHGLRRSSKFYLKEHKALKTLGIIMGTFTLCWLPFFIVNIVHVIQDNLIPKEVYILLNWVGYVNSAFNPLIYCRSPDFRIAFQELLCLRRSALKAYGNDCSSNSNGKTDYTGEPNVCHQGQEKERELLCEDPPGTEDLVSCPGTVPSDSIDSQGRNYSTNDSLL

[6] = target: Beta-1 adrenergic receptor (Cavia porcellus, UniProt B0FL73); assay: In vitro inhibitory activity against beta-1 adrenergic receptor was measured by the inhibition of the positive chronotropic effect of isoproterenolin in isolated guinea pig atria.; conditions: read-out: pA2 (converted)
Sequence of Beta-1 adrenergic receptor (B0FL73 whole entry): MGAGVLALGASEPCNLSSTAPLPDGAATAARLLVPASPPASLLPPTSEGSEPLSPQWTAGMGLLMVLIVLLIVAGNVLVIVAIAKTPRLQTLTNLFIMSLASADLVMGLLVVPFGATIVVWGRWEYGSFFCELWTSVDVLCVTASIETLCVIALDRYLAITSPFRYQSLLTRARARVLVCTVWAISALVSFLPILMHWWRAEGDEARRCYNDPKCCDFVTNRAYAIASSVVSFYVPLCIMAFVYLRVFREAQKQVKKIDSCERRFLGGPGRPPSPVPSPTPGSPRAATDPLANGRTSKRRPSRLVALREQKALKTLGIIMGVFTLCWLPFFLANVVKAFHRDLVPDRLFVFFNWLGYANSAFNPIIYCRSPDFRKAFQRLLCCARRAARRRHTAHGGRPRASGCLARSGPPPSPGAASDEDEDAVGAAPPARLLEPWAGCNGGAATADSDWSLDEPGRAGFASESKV

Rattus norvegicus [7] = assay: Effective dose was evaluated following intravenous administration in reserpinized normotensive anesthetized rats; type: functional
Rattus norvegicus [8] = assay: Intrinsic sympathomimetic activity (ISA) in the reserpinized normotensive anesthetized rats following intravenous administration at 1000 ug/kg; type: functional

Compound | logD [1] | pKa [2] | Max increase (Rattus norvegicus [3]) | also measured
COCCc1c[nH]c(-c2ccc(OCC(O)CNCCc3ccc(OC)c(OC)c3)cc2)n1 (stereo not drawn) | 1.32 | 5.9 | 75 | –
COc1ccc(CCNCC(O)COc2ccc(-c3nccs3)cc2)cc1OC (stereo not drawn) | 0.505 | – | 70 | –
COc1ccc(CCNCC(O)COc2ccc(-c3nc(CN4CCOCC4)c[nH]3)cc2)cc1OC (stereo not drawn) | 0.215 | 3.54 | 30 | –
COc1ccc(CCNC[C@H](O)COc2ccc(-c3nc(C(C)(C)C)c[nH]3)cc2)cc1OC | 2.2 | 6.42 | – | Max increase (Rattus norvegicus [4]): 21
O=C(NCCNCC(O)COc1ccc(-c2ncc[nH]2)cc1)Nc1ccccc1 (stereo not drawn) | 0.778 | 5.75 | – | –
COCc1c[nH]c(-c2ccc(OCC(O)CNCCc3ccc(OC)c(OC)c3)cc2)n1 (stereo not drawn) | 0.799 | 5.64 | 38 | pA2 [5]: Active
CCOC(=O)c1c[nH]c(-c2ccc(OCC(O)CNCCc3ccc(OC)c(OC)c3)cc2)n1 (stereo not drawn) | 1.41 | 3.8 | 60 | –
COc1ccc(CCNCC(O)COc2ccc(-c3nc(C)c[nH]3)cc2Br)cc1OC (stereo not drawn) | 1.6 | 5.7 | – | –
CC(C)NCC(O)COc1ccc(Cc2nc(Br)c[nH]2)cc1 (stereo not drawn) | 0.204 | 3.75 | 7 | Kb [6]: 3.16 nM
COc1ccc(CCNCC(O)COc2ccc(-c3nc(C(C)=O)c(C)[nH]3)cc2)cc1OC (stereo not drawn) | 1.28 | 4 | 24 | –
COCc1[nH]c(-c2ccc(OCC(O)CNCCc3ccc(OC)c(OC)c3)cc2)nc1C (stereo not drawn) | 0.839 | 4.92 | – | –
Cc1c[nH]c(Cc2ccc(OCC(O)CNC(C)(C)C)cc2)n1 (stereo not drawn) | -0.638 | 6.93 | – | –
CC(C)NCC(O)COc1ccc(-c2nc(C(C)C)c[nH]2)cc1 (stereo not drawn) | 0.952 | 6.32 | – | –
COc1ccc(CCNCC(O)COc2ccc(-c3nc(C(C)(C)C)c[nH]3)cc2)cc1OC (stereo not drawn) | 2.09 | 6.2 | 48 | –
CCCNCC(O)COc1ccc(-c2nc(-c3cccs3)c[nH]2)cc1 (stereo not drawn) | 1.41 | 4.79 | – | –
COc1ccc(CCNCC(O)COc2ccc(-c3nc(C)c[nH]3)cc2OC)cc1OC (stereo not drawn) | 0.968 | 6.35 | – | –
CCCCNC(=O)NCCNCC(O)COc1ccc(-c2nc(C)c[nH]2)cc1 (stereo not drawn) | 0.699 | 3.6 | – | –
CC(C)NCC(O)COc1ccc(-c2nc(-c3cccs3)c[nH]2)cc1 (stereo not drawn) | 1.18 | 4.9 | – | –
COc1ccc(CCNCC(O)COc2ccc(-c3nc(-c4cccs4)c[nH]3)cc2Cl)cc1OC (stereo not drawn) | 2.34 | 4.02 | 19 | –
CCOCCNC[C@H](O)COc1ccc(-c2nc(-c3cccs3)c[nH]2)cc1 | 1.86 | 4.6 | – | ED50 (Rattus norvegicus [7]): 0.0784 mg/kg
COc1ccc(CCNC[C@H](O)COc2ccc(Cc3nc(C(C)=O)c[nH]3)cc2)cc1OC | 0.301 | 3.95 | 0 | –
COc1ccc(CCNCC(O)COc2ccc(COCc3ncc[nH]3)cc2)cc1OC (stereo not drawn) | 0.633 | 5.5 | 2 | –
COc1ccc(CCNCC(O)COc2ccc(CCc3nc(-c4cccs4)c[nH]3)cc2)cc1OC (stereo not drawn) | 1.53 | 5.45 | 0 | –
CCOCCNCC(O)COc1ccc(-c2nc(-c3cccs3)c[nH]2)cc1 (stereo not drawn) | 1.78 | 4.5 | – | –

Compound | logD [1] | pKa [2] | Max increase (Rattus norvegicus [3]) | also measured
COc1ccc(CCNC[C@H](O)COc2ccc(-c3nc(-c4cccs4)c[nH]3)cc2)cc1OC.Cl.Cl | – | – | 19 | –
COc1ccc(CCNCC(O)COc2ccc(-c3nc(C(N)=O)c[nH]3)cc2)cc1OC (stereo not drawn) | 0.279 | 3.6 | 47 | –
COc1ccc(CCNCC(O)COc2ccc(OCc3ncc[nH]3)cc2)cc1OC (stereo not drawn) | 0.663 | 5.2 | – | –
COc1ccc(CCNCC(O)COc2ccc(Cc3nc(C)c[nH]3)cc2)cc1OC (stereo not drawn) | 0.301 | 7.01 | 0 | –
COc1ccc(CCNC[C@H](O)COc2ccc(-c3nc(C(C)=O)c[nH]3)cc2)cc1OC | 0.694 | 3.6 | – | ED50 (Rattus norvegicus [7]): 0.0074 mg/kg
COc1ccc(CCNCC(O)COc2ccc(-c3nc(-c4cccs4)c[nH]3)cc2)cc1OC (stereo not drawn) | – | – | – | ED50 (Rattus norvegicus [7]): 0.0479 mg/kg
CCOCc1c[nH]c(-c2ccc(OCC(O)CNCCc3ccc(OC)c(OC)c3)cc2)n1 (stereo not drawn) | 0.312 | 5.25 | 27 | –
N#Cc1ccccc1OCC(O)CNCCNC(=O)Nc1ccccc1.O (stereo not drawn) | – | – | – | ED50 (Rattus norvegicus [7]): 0.0029 mg/kg
COc1ccc(CCNCC(O)COc2ccc(-c3ncco3)cc2)cc1OC (stereo not drawn) | 1.6 | 8.4 | 19 | –
COc1ccc(CCNCC(O)COc2ccc(-c3nc(-c4cccs4)c[nH]3)cc2C)cc1OC (stereo not drawn) | 2.76 | 4.55 | 21 | –
COc1ccc(CCNCC(O)COc2ccc(-c3nc(Br)c[nH]3)cc2)cc1OC (stereo not drawn) | 1.24 | 3.65 | – | ED50 (Rattus norvegicus [7]): 0.0064 mg/kg
CC(C)NCC(O)COc1ccc(-c2ncc[nH]2)cc1 (stereo not drawn) | -0.569 | 5.65 | 53 | –
COc1ccc(CCNCC(O)COc2ccc(-c3nc(Cl)c[nH]3)cc2)cc1OC (stereo not drawn) | 1.61 | 3.48 | 42 | –
COc1ccc(CCNCC(O)COc2ccc(-c3nc(CO)c[nH]3)cc2)cc1OC (stereo not drawn) | 0 | 5.55 | – | –
COc1ccc(CCNCC(O)COc2ccc(-c3nc(Br)c[nH]3)cc2Cl)cc1OC (stereo not drawn) | 2.31 | 3.3 | 48 | –
COc1ccc(CCNCC(O)COc2ccc(-c3nc(C)c(Cl)[nH]3)cc2)cc1OC (stereo not drawn) | 1.88 | 3.62 | – | Max increase (Rattus norvegicus [8]): 19
COc1ccc(CCNCC(O)COc2ccc(-c3nc(C(C)C)c[nH]3)cc2)cc1OC (stereo not drawn) | 1.79 | 6.78 | 24 | –
COc1ccc(CCNCC(O)COc2ccc(CCc3nc(Br)c[nH]3)cc2)cc1OC (stereo not drawn) | 1 | 3.65 | – | –
COc1ccc(CCNCC(O)COc2ccc(Cc3nc(-c4cccs4)c[nH]3)cc2)cc1OC (stereo not drawn) | 1.58 | 4.99 | 3 | –
OC(CNCCc1ccncc1)COc1ccc(-c2nc(-c3cccs3)c[nH]2)cc1 (stereo not drawn) | 1.9 | 3.8 | – | ED50 (Rattus norvegicus [7]): 0.0654 mg/kg
COc1ccc(CCNCC(O)COc2ccc(-c3nc(C)c(C)[nH]3)cc2)cc1OC (stereo not drawn) | 1.02 | 6.72 | 19 | –
COc1ccc(CCNCC(O)COc2ccc(-c3nccn3C)cc2)cc1OC.Cl.Cl (stereo not drawn) | 0.881 | 6.7 | 47 | –
COc1ccc(CCNCC(O)COc2ccc(-c3nc(Br)c(C)[nH]3)cc2)cc1OC (stereo not drawn) | 1.98 | 5.8 | – | Max increase (Rattus norvegicus [8]): 23

Reference: ChEMBL document CHEMBL1123279, “Beta 1-selective adrenoceptor antagonists: examples of the 2-[4-[3-(substituted amino)-2-hydroxypropoxy]phenyl]imidazole class. 2” (J Med Chem, 1986)
